Measurements as given in ChEMBL document CHEMBL6096689, “Structure-Guided Development of ClpP Agonists with Potent Therapeutic Activities against Staphylococcus aureus Infection” (J Med Chem, 2025).
In brackets after ≈: the same amount, converted by molar mass. Activity calls are given as the source filed them. The rule behind the calls is not given here.

Experiments:
[1] = test system: Staphylococcus aureus; assay: microbe, parasite or virus in culture; assay type: functional; conditions: Newman, time 18 hrs
Description: Antibacterial activity against Staphylococcus aureus Newman assessed as inhibition of visible growth of bacteria incubated for 18 hrs by absorbance based analysis

[2] = Therapeutic index, ratio of IC50 for HEK293T/17 cells to MIC for Staphylococcus aureus Newman; assay type: toxicity, cell-based; conditions: human, read-out: TI
[3] = biological target: T1, ATP-dependent Clp protease proteolytic subunit (Staphylococcus aureus (strain NCTC 8325)) (UniProt Q2G036); assay: Agonist activity at Staphylococcus aureus ClpP extracted from Escherichia coli BL21 (DE3) cells assessed as induction of ClpP-mediated staphylococcus aureus FtsZ degradation preincubated for 15 mins followed by FtsZ addition by SDS-PAGE analysis; conditions: filed as agonist, time <= 105.0 min
T1 sequence (whole entry): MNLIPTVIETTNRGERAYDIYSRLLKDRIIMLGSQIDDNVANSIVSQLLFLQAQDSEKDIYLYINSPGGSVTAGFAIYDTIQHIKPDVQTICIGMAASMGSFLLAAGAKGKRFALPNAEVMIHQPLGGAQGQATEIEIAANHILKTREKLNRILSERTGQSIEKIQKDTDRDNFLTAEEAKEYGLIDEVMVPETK

[4] = biological target: T2, ATP-dependent Clp protease proteolytic subunit, mitochondrial (Homo sapiens, UniProt Q16740); assay: Agonist activity at human ClpP extracted from Escherichia coli Rosetta (DE3) cells using alpha-casein as substrate assessed as substrate hydrolysis preincubated for 15 mins followed by substrate addition and measured after 2 hrs by SDS-PAGE analysis
[5] = biological target: ATP-dependent Clp protease proteolytic subunit (Escherichia coli (strain K12), UniProt P0A6G7); assay: Agonist activity at Escherichia coli ClpP using alpha-casein as substrate assessed as substrate hydrolysis preincubated for 15 mins followed by substrate addition and measured after 2 hrs by SDS-PAGE analysis
[6] = Agonist activity at Lactobacillus acidophilus ClpP using alpha-casein as substrate assessed as substrate hydrolysis preincubated for 15 mins followed by substrate addition and measured after 2 hrs by SDS-PAGE analysis
[7] = biological target: T1, ATP-dependent Clp protease proteolytic subunit (Staphylococcus aureus (strain NCTC 8325)); assay: Induction of thermal stabilization of Staphylococcus aureus ClpP extracted from Escherichia coli BL21 (DE3) cells assessed as change in melting temperature at 10 uM incubated for 10 mins by DSF analysis
[8] = Therapeutic index, ratio of IC50 for HK-2 cells to MIC for Staphylococcus aureus Newman; assay type: toxicity, cell-based; conditions: human, read-out: TI
[9] = Therapeutic index, ratio of IC50 for human ARH-77 cells to MIC for Staphylococcus aureus Newman; assay type: toxicity, cell-based; conditions: read-out: TI
[10] = biological target: T2, ATP-dependent Clp protease proteolytic subunit, mitochondrial; assay: Induction of thermal stabilization of CLpP in HEK293T/17 at 10 times of MIC preincubated for 2 hrs followed by compound washout and incubated under 57.3 to 74.5 degreeC for 3 mins by CETSA; assay type: cell-based
[11] = biological target: T3, Cell division protein FtsZ (Staphylococcus aureus) (UniProt P0A031); assay: Induction of FtsZ degradation in Staphylococcus aureus 8325-4 incubated for 3 hrs by Western blot analysis; conditions: dose 1.25-10 µM
T3 sequence (whole entry): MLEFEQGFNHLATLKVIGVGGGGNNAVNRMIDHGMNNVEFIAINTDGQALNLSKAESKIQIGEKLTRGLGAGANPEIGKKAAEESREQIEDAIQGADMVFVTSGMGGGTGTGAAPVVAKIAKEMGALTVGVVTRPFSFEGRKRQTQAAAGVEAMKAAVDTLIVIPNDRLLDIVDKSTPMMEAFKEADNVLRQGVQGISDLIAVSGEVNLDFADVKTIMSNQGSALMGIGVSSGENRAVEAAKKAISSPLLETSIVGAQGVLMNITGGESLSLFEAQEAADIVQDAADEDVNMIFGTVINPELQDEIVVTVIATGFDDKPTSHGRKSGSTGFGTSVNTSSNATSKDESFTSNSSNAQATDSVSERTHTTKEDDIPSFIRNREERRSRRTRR

[12] = test system: Staphylococcus aureus; assay: Antibacterial activity against CLpP complemented Staphylococcus aureus 8325-4 assessed as inhibition of visible growth of bacteria incubated for 18 hrs by absorbance based assay; assay type: functional, organism-based
[13] = test system: Staphylococcus aureus; assay: microbe, parasite or virus in culture; assay type: functional; conditions: NRS-1, time 18 hrs
Description: Antibacterial activity against methicillin-resistant Staphylococcus aureus NRS-1 assessed as inhibition of visible growth of bacteria incubated for 18 hrs by absorbance based analysis

[14] = test system: Staphylococcus aureus; assay: microbe, parasite or virus in culture; assay type: functional; conditions: NRS-271, time 18 hrs
Description: Antibacterial activity against methicillin-resistant Staphylococcus aureus NRS-271 assessed as inhibition of visible growth of bacteria incubated for 18 hrs by absorbance based analysis

[15] = test system: Staphylococcus aureus; assay: microbe, parasite or virus in culture; assay type: functional; conditions: time 18 hrs
Description: Antibacterial activity against multidrug-resistant Staphylococcus aureus clinical isolate XJ009 assessed as inhibition of visible growth of bacteria incubated for 18 hrs by absorbance based analysis

[16] = test system: Staphylococcus aureus; assay: microbe, parasite or virus in culture; assay type: functional; conditions: time 18 hrs; remark: listed apart in the source
Description: Antibacterial activity against multidrug-resistant Staphylococcus aureus clinical isolate XJ049 assessed as inhibition of visible growth of bacteria incubated for 18 hrs by absorbance based analysis

[17] = test system: Staphylococcus aureus; assay: microbe, parasite or virus in culture; assay type: functional; conditions: time 18 hrs; remark: listed apart in the source
Description: Antibacterial activity against multidrug-resistant Staphylococcus aureus clinical isolate XJ051 assessed as inhibition of visible growth of bacteria incubated for 18 hrs by absorbance based analysis

[18] = test system: Staphylococcus aureus; assay: microbe, parasite or virus in culture; assay type: functional; conditions: time 18 hrs; remark: listed apart in the source
Description: Antibacterial activity against multidrug-resistant Staphylococcus aureus clinical isolate XJ052 assessed as inhibition of visible growth of bacteria incubated for 18 hrs by absorbance based analysis

[19] = test system: Staphylococcus aureus; assay: Antibacterial activity against Staphylococcus aureus USA300 infected in Zebrafish infection model assessed as increase in zebrafish survival at 5 mg/kg pre-infected for 1 hrs followed by compound addition and measured after 5 days; assay type: functional, organism-based; conditions: time 5.0 day
[20] = test system: Staphylococcus aureus; assay: Antibacterial activity against Staphylococcus aureus USA300 infected in Zebrafish infection model assessed as increase in zebrafish survival at 25 mg/kg pre-infected for 1 hrs followed by compound addition and measured after 5 days; assay type: functional, organism-based; conditions: time 5.0 day
[21] = test system: Staphylococcus aureus; assay: Antibacterial activity against Staphylococcus aureus USA300 infected in female ICR mouse peritonitis model assessed as increase in mouse survival at 25 to 100 mg/kg, ip pre-infected for 1 hrs followed by compound addition and measured after 5 days relative to control; assay type: functional; conditions: dose 25-100 mg/kg, time 5 day
[22] = test system: Staphylococcus aureus; assay: Antibacterial activity against Staphylococcus aureus USA300 infected in female ICR mouse peritonitis model assessed as reduction in bacterial load in heart at 25 to 100 mg/kg, ip pre-infected for 1 hrs followed by compound addition and measured after 5 days relative to control; assay type: functional; conditions: dose 25-100 mg/kg, time 5 day
[23] = test system: Staphylococcus aureus; assay: Antibacterial activity against Staphylococcus aureus USA300 infected in female ICR mouse peritonitis model assessed as reduction in bacterial load in spleen at 25 to 100 mg/kg, ip pre-infected for 1 hrs followed by compound addition and measured after 5 days relative to control; assay type: functional; conditions: dose 25-100 mg/kg, time 5 day
[24] = test system: Staphylococcus aureus; assay: Antibacterial activity against Staphylococcus aureus USA300 infected in female ICR mouse peritonitis model assessed as reduction in bacterial load in lung at 25 to 100 mg/kg, ip pre-infected for 1 hrs followed by compound addition and measured after 5 days relative to control; assay type: functional; conditions: dose 25-100 mg/kg, time 5 day
[25] = test system: Staphylococcus aureus; assay: Antibacterial activity against Staphylococcus aureus USA300 infected in female ICR mouse peritonitis model assessed as reduction in bacterial load in peritoneal fluid at 25 to 100 mg/kg, ip pre-infected for 1 hrs followed by compound addition and measured after 5 days relative to control; assay type: functional; conditions: dose 25-100 mg/kg, time 5 day
[26] = test system: Staphylococcus aureus; assay: Antibacterial activity against oxacillin-resistant Staphylococcus aureus clinical isolate XJ049 infected in female ICR mouse peritonitis model assessed as mouse survival at 50 mg/kg, ip pre-infected for 1 hrs followed by compound addition and measured after 5 days relative to control; assay type: functional; conditions: 120 h, time 5 day
[27] = Toxicity in female ICR mouse model of peritonitis infected with oxacillin-resistant Staphylococcus aureus clinical isolate XJ049 assessed as effect on body weight at 50 mg/kg, ip pre-infected for 1 hrs followed by compound addition and measured after 5 days; assay type: organism-based; conditions: in vivo, 120 h, time 5 day

T2 sequence (Q16740 whole entry): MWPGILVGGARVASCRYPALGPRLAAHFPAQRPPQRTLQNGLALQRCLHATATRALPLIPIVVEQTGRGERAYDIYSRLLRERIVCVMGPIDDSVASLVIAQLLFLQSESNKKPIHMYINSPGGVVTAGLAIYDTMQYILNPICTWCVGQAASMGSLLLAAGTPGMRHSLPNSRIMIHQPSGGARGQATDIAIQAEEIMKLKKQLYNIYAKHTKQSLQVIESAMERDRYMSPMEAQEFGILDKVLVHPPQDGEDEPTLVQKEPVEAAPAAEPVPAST
Chain of ATP-dependent Clp protease proteolytic subunit (P0A6G7 whole entry): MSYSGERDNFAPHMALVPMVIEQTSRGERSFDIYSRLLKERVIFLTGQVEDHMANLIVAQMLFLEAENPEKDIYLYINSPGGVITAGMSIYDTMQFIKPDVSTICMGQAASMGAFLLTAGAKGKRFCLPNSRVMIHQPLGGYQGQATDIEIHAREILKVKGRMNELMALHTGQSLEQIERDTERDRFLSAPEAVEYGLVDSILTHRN

CC[C@H](C)[C@H]1C(=O)N(Cc2ccc(OC)c3ccccc23)C[C@@H]2N(C(=O)NCCCC(F)(F)F)CCC(=O)N12
MIC [1]: 0.063 µg/mL (≈ 0.115 µM) | selectivity ratio [2]: 190 | Activity [3]: Time-dependent-effect | EC50 [4]: 3.6 µM | EC50 [5]: > 100 µM | EC50 [6]: > 100 µM | ΔTm [7]: 22.8 °C | selectivity ratio [8]: 180 | selectivity ratio [9]: 206 | Activity [10]: Active; Minimal Effect On Thermal Stability Observed | Activity [11]: Dose-dependent-effect | Activity [12]: Active | MIC [13]: 0.13 µg/mL (≈ 0.237 µM) | MIC [14]: 0.06 µg/mL (≈ 0.109 µM) | MIC [15]: 0.06 µg/mL (≈ 0.109 µM) | MIC [16]: 0.13 µg/mL (≈ 0.237 µM) | MIC [17]: 0.03 µg/mL (≈ 0.0547 µM) | MIC [18]: 0.13 µg/mL (≈ 0.237 µM) | Activity [19]: Active; Comparable To 25 Mg/Kg Of (R)-Zg197 | Activity [20]: Active | Activity [21]: 89% | Activity [22]: 2 log10CFU/g | Activity [23]: 2 log10CFU/g | Activity [24]: 2 log10CFU/g | Activity [25]: 2 log10CFU/g | survival at 50 mg/kg [26]: 100% | Activity [27]: Non-toxic
